Test systems include BT-549 breast; DU-145 prostate; EKVX NSCLC; HL-60(TB) leukemia; KM12 colon; MDA-MB-231 breast; MOLT-4 leukemia; SF-268 CNS; SK-MEL-2 melanoma; SK-OV-3 ovarian.
Common to all, as to experiment: NCI tumour cell line growth inhibition, 48 h

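Following 48 hours of exposure in 96-well plates, responses at five concentrations were used to interpolate endpoints linearly. Here, GI50 denotes the concentration required for 50% inhibition of growth. The concentration for full growth arrest is given as TGI.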

Results on seven compounds are retold here after PubChem BioAssay (NCI).

As for `COc1ccccc1NC(=O)n1nc(N)c2ccccc21`, the GI50 was 39.3 µM with BT-549 breast; more than 100 µM in the assay on DU-145 prostate; 55.9 µM in the assay with EKVX NSCLC; 55 µM in the assay on HL-60(TB) leukemia; 47.4 µM with KM12 colon; 66 µM in the assay on MDA-MB-231 breast. Further, the GI50 in the assay with MOLT-4 leukemia is 67.4 µM; in the assay with SF-268 CNS it was more than 48.1 µM; with SK-MEL-2 melanoma it was more than 100 µM; in the assay with SK-OV-3 ovarian, more than 100 µM. The TGI in the assay with BT-549 breast, with DU-145 prostate, with EKVX NSCLC, with HL-60(TB) leukemia, with KM12 colon and in the assay with MDA-MB-231 breast was more than 100 µM each time. Moreover, the TGI in the assay on MOLT-4 leukemia, in the assay on SF-268 CNS, in the assay on SK-MEL-2 melanoma and in the assay on SK-OV-3 ovarian was more than 100 µM each time.
As for `NC(=O)c1cc(Br)cc(C2CCCCC2)c1O`, the GI50 in the assay with BT-549 breast is 13.6 µM; in the assay on DU-145 prostate it was 12.3 µM; with EKVX NSCLC, 15.1 µM; in the assay with HL-60(TB) leukemia it was 20.9 µM; with KM12 colon, 11.7 µM; in the assay on MDA-MB-231 breast, 12.1 µM. Also, the GI50 was 13.9 µM in the assay with MOLT-4 leukemia, 11.4 µM in the assay with SF-268 CNS, 15.8 µM in the assay on SK-MEL-2 melanoma and 17.2 µM in the assay with SK-OV-3 ovarian. Further, the TGI in the assay on BT-549 breast was determined as 26.4 µM; with DU-145 prostate, 24.9 µM; with EKVX NSCLC, 30.5 µM; with HL-60(TB) leukemia, 46.3 µM; in the assay on KM12 colon, 24.5 µM; in the assay with MDA-MB-231 breast, 25.3 µM. In addition, the TGI came to 34.5 µM in the assay with MOLT-4 leukemia, 25 µM in the assay on SF-268 CNS, 29.7 µM in the assay on SK-MEL-2 melanoma and 31.1 µM with SK-OV-3 ovarian.
As to `CCOC(=O)C(=Cc1ccccc1[N+](=O)[O-])C(=O)OCC`, the GI50 with BT-549 breast is 5.28 µM; with DU-145 prostate, 3.22 µM; in the assay with EKVX NSCLC, 6.61 µM; in the assay on HL-60(TB) leukemia, 3.3 µM; in the assay with KM12 colon it was 2.72 µM; in the assay with MDA-MB-231 breast, 2.48 µM. In addition, the GI50 is 3.55 µM with MOLT-4 leukemia, 3.35 µM in the assay on SF-268 CNS, 4.01 µM in the assay with SK-MEL-2 melanoma and 3.51 µM with SK-OV-3 ovarian. Besides, the TGI came out at 17.3 µM in the assay on BT-549 breast; 12 µM with DU-145 prostate; 20.9 µM in the assay with EKVX NSCLC; 45.5 µM with HL-60(TB) leukemia; 10.3 µM in the assay on KM12 colon; 7.59 µM in the assay with MDA-MB-231 breast. For the same compound, the TGI with MOLT-4 leukemia is 34.5 µM; with SF-268 CNS, 11.5 µM; in the assay on SK-MEL-2 melanoma, 11.9 µM; with SK-OV-3 ovarian, 12.7 µM.
For `Cc1sc(C)c(Cc2c(C)sc(C)c2CCl)c1CCl`, the GI50 in the assay with BT-549 breast, in the assay with DU-145 prostate, in the assay with EKVX NSCLC, in the assay on HL-60(TB) leukemia, with KM12 colon and with MDA-MB-231 breast was more than 100 µM in each case. Further, the GI50 in the assay on MOLT-4 leukemia, in the assay with SF-268 CNS, in the assay on SK-MEL-2 melanoma and in the assay on SK-OV-3 ovarian was more than 100 µM in each case. Besides, the TGI in the assay with BT-549 breast, in the assay with DU-145 prostate, in the assay with EKVX NSCLC, in the assay with HL-60(TB) leukemia, in the assay with KM12 colon and in the assay with MDA-MB-231 breast was more than 100 µM in each case. The TGI in the assay with MOLT-4 leukemia, in the assay with SF-268 CNS, in the assay on SK-MEL-2 melanoma and with SK-OV-3 ovarian was more than 100 µM throughout.
Take `Clc1ccc2[nH]cc(-c3nc(-c4c[nH]c5ncccc45)cs3)c2c1`: the GI50 with BT-549 breast was 4.85 µM; with DU-145 prostate it was 4.23 µM; in the assay on EKVX NSCLC, 2.16 µM; with HL-60(TB) leukemia it was 2.89 µM; in the assay on KM12 colon, 3.17 µM; in the assay on MDA-MB-231 breast, 2.2 µM. In addition, the GI50 in the assay with MOLT-4 leukemia was 2.73 µM; in the assay on SF-268 CNS it was 5.06 µM; in the assay on SK-MEL-2 melanoma it was 6.51 µM; in the assay with SK-OV-3 ovarian, 6.16 µM. The TGI in the assay with BT-549 breast is 17.1 µM; in the assay with DU-145 prostate it was 21.4 µM; in the assay with EKVX NSCLC, 22.3 µM; in the assay with HL-60(TB) leukemia it was 45.6 µM; in the assay on KM12 colon it was 12.2 µM; in the assay with MDA-MB-231 breast, 17.1 µM. In addition, the TGI with MOLT-4 leukemia turned out to be 25.6 µM; with SF-268 CNS it was 32.4 µM; with SK-MEL-2 melanoma it was 23.7 µM; in the assay on SK-OV-3 ovarian, 39 µM.
On to `COCCOC(=O)NC(=O)Nc1ccc(/C(=N/O)c2ccc(Cl)cc2)cc1`, for which the GI50 with BT-549 breast is 0.58 µM; in the assay with DU-145 prostate, 0.121 µM; with EKVX NSCLC it was 0.161 µM; in the assay with HL-60(TB) leukemia, 0.0783 µM; with KM12 colon, 0.0996 µM; in the assay with MDA-MB-231 breast, 0.166 µM. The results for the GI50 in the assay on MOLT-4 leukemia, in the assay on SF-268 CNS and in the assay with SK-OV-3 ovarian were 0.109 µM, 0.209 µM and 0.118 µM, respectively. Moreover, the TGI in the assay with BT-549 breast is 39.6 µM; with DU-145 prostate, 20.4 µM; with EKVX NSCLC it was more than 89.8 µM; with HL-60(TB) leukemia, 0.137 µM; with KM12 colon, 29.1 µM; in the assay with MDA-MB-231 breast, 11 µM. Also, the TGI in the assay with MOLT-4 leukemia is 7.76 µM; in the assay on SF-268 CNS it was more than 100 µM; in the assay with SK-MEL-2 melanoma it was 29 µM; in the assay on SK-OV-3 ovarian it was 25.1 µM.
In the case of `COc1cc2c3c(n(CCCNCCN)c(=O)c2cc1OC)-c1cc2c(cc1C3=O)OCO2`, the GI50 was 1.56 µM in the assay with BT-549 breast; 0.556 µM in the assay on DU-145 prostate; 4.58 µM in the assay with EKVX NSCLC; 0.682 µM in the assay on HL-60(TB) leukemia; 1.48 µM with KM12 colon; 0.343 µM with MDA-MB-231 breast. Further, the GI50 is less than 0.0445 µM in the assay on MOLT-4 leukemia, 0.776 µM with SF-268 CNS, 2.63 µM in the assay with SK-MEL-2 melanoma and more than 100 µM with SK-OV-3 ovarian. Moreover, the TGI was 9.7 µM in the assay with BT-549 breast; 3.41 µM with DU-145 prostate; 17.2 µM in the assay on EKVX NSCLC; 3.66 µM in the assay with HL-60(TB) leukemia; 7.19 µM in the assay on KM12 colon; 2.48 µM in the assay on MDA-MB-231 breast. In addition, the TGI in the assay with MOLT-4 leukemia was 0.081 µM; with SF-268 CNS, more than 31.9 µM; in the assay on SK-MEL-2 melanoma it was 8.67 µM; in the assay on SK-OV-3 ovarian, more than 100 µM.
